{"source": "patent US20230049952A1", "about": "“METHODS AND COMPOUNDS FOR RESTORING MUTANT P53 FUNCTION” (PMV Pharmaceuticals, Inc., priority 2020, published 2023)", "tested_on": "p53 signaling pathway in MT373 tumors", "test": "MT373 syngeneic sarcoma model: mouse p53 signaling pathway profiling panel", "assay_type": "in vivo", "data": [{"smiles": "CCn1c(C#CCNc2ccccc2)cc2cc(CNC3CCN(C)CC3)ccc21", "note": "[Compound 1, 1-Anilino-3-{1-ethyl-5-[(1-methyl-4-piperidylamino)methyl]-1H-indol-2-yl}-2-propyne]", "values": [{"measurement": "Apex1 fold increase or percent reduction vs vehicle control", "setting": "75 mg/kg BIDx1, 8 h", "result": "19.97 fold or %"}, {"measurement": "Atm fold increase or percent reduction vs vehicle control", "setting": "75 mg/kg BIDx1, 8 h", "result": "13.42 fold or %"}, {"measurement": "Atr fold increase or percent reduction vs vehicle control", "setting": "75 mg/kg BIDx1, 8 h", "result": "8.05 fold or %"}, {"measurement": "Bag1 fold increase or percent reduction vs vehicle control", "setting": "75 mg/kg BIDx1, 8 h", "result": "24.87 fold or %"}, {"measurement": "Bax fold increase or percent reduction vs vehicle control", "setting": "75 mg/kg BIDx1, 8 h", "result": "1.97 fold or %"}, {"measurement": "Bbc3 fold increase or percent reduction vs vehicle control", "setting": "75 mg/kg BIDx1, 8 h", "result": "2.97 fold or %"}, {"measurement": "Bcl2 fold increase or percent reduction vs vehicle control", "setting": "75 mg/kg BIDx1, 8 h", "result": "7.84 fold or %"}, {"measurement": "Bid fold increase or percent reduction vs vehicle control", "setting": "75 mg/kg BIDx1, 8 h", "result": "1.19 fold or %"}, {"measurement": "Birc5 fold increase or percent reduction vs vehicle control", "setting": "75 mg/kg BIDx1, 8 h", "result": "15.16 fold or %"}, {"measurement": "Brca1 fold increase or percent reduction vs vehicle control", "setting": "75 mg/kg BIDx1, 8 h", "result": "3.14 fold or %"}, {"measurement": "Brca2 fold increase or percent reduction vs vehicle control", "setting": "75 mg/kg BIDx1, 8 h", "result": "5.75 fold or %"}, {"measurement": "Btg2 fold increase or percent reduction vs vehicle control", "setting": "75 mg/kg BIDx1, 8 h", "result": "14.84 fold or %"}, {"measurement": "Casp2 fold increase or percent reduction vs vehicle control", "setting": "75 mg/kg BIDx1, 8 h", "result": "17.74 fold or %"}, {"measurement": "Ccnb1 fold increase or percent reduction vs vehicle control", "setting": "75 mg/kg BIDx1, 8 h", "result": "4.81 fold or %"}, {"measurement": "Ccne1 fold increase or percent reduction vs vehicle control", "setting": "75 mg/kg BIDx1, 8 h", "result": "12.14 fold or %"}, {"measurement": "Ccng1 fold increase or percent reduction vs vehicle control", "setting": "75 mg/kg BIDx1, 8 h", "result": "6.19 fold or %"}, {"measurement": "Ccnh fold increase or percent reduction vs vehicle control", "setting": "75 mg/kg BIDx1, 8 h", "result": "15.28 fold or %"}, {"measurement": "Cdc25a fold increase or percent reduction vs vehicle control", "setting": "75 mg/kg BIDx1, 8 h", "result": "15.20 fold or %"}, {"measurement": "Cdk1 fold increase or percent reduction vs vehicle control", "setting": "75 mg/kg BIDx1, 8 h", "result": "32.00 fold or %"}, {"measurement": "Cdk4 fold increase or percent reduction vs vehicle control", "setting": "75 mg/kg BIDx1, 8 h", "result": "37.50 fold or %"}, {"measurement": "Cdkn1a fold increase or percent reduction vs vehicle control", "setting": "75 mg/kg BIDx1, 8 h", "result": "7.14 fold or %"}, {"measurement": "Cdkn2a fold increase or percent reduction vs vehicle control", "setting": "75 mg/kg BIDx1, 8 h", "result": "31.09 fold or %"}, {"measurement": "Chek1 fold increase or percent reduction vs vehicle control", "setting": "75 mg/kg BIDx1, 8 h", "result": "19.58 fold or %"}, {"measurement": "Cradd fold increase or percent reduction vs vehicle control", "setting": "75 mg/kg BIDx1, 8 h", "result": "21.01 fold or %"}, {"measurement": "Cul9 fold increase or percent reduction vs vehicle control", "setting": "75 mg/kg BIDx1, 8 h", "result": "1.73 fold or %"}, {"measurement": "Dapk1 fold increase or percent reduction vs vehicle control", "setting": "75 mg/kg BIDx1, 8 h", "result": "1.37 fold or %"}, {"measurement": "Dnmt1 fold increase or percent reduction vs vehicle control", "setting": "75 mg/kg BIDx1, 8 h", "result": "1.16 fold or %"}, {"measurement": "E2f1 fold increase or percent reduction vs vehicle control", "setting": "75 mg/kg BIDx1, 8 h", "result": "1.05 fold or %"}, {"measurement": "E2f3 fold increase or percent reduction vs vehicle control", "setting": "75 mg/kg BIDx1, 8 h", "result": "21.77 fold or %"}, {"measurement": "Egfr fold increase or percent reduction vs vehicle control", "setting": "75 mg/kg BIDx1, 8 h", "result": "42.31 fold or %"}, {"measurement": "Egr1 fold increase or percent reduction vs vehicle control", "setting": "75 mg/kg BIDx1, 8 h", "result": "59.72 fold or %"}, {"measurement": "Ep300 fold increase or percent reduction vs vehicle control", "setting": "75 mg/kg BIDx1, 8 h", "result": "15.26 fold or %"}, {"measurement": "Ercc1 fold increase or percent reduction vs vehicle control", "setting": "75 mg/kg BIDx1, 8 h", "result": "20.74 fold or %"}, {"measurement": "Esr1 fold increase or percent reduction vs vehicle control", "setting": "75 mg/kg BIDx1, 8 h", "result": "1.22 fold or %"}, {"measurement": "Fadd fold increase or percent reduction vs vehicle control", "setting": "75 mg/kg BIDx1, 8 h", "result": "2.66 fold or %"}, {"measurement": "Fas fold increase or percent reduction vs vehicle control", "setting": "75 mg/kg BIDx1, 8 h", "result": "1.75 fold or %"}, {"measurement": "Fasl fold increase or percent reduction vs vehicle control", "setting": "75 mg/kg BIDx1, 8 h", "result": "1.24 fold or %"}, {"measurement": "Foxo3 fold increase or percent reduction vs vehicle control", "setting": "75 mg/kg BIDx1, 8 h", "result": "1.04 fold or %"}, {"measurement": "Gadd45a fold increase or percent reduction vs vehicle control", "setting": "75 mg/kg BIDx1, 8 h", "result": "25.34 fold or %"}, {"measurement": "Hif1a fold increase or percent reduction vs vehicle control", "setting": "75 mg/kg BIDx1, 8 h", "result": "1.26 fold or %"}, {"measurement": "Il6 fold increase or percent reduction vs vehicle control", "setting": "75 mg/kg BIDx1, 8 h", "result": "68.47 fold or %"}, {"measurement": "Jun fold increase or percent reduction vs vehicle control", "setting": "75 mg/kg BIDx1, 8 h", "result": "22.75 fold or %"}, {"measurement": "Kras fold increase or percent reduction vs vehicle control", "setting": "75 mg/kg BIDx1, 8 h", "result": "1.03 fold or %"}, {"measurement": "Lig4 fold increase or percent reduction vs vehicle control", "setting": "75 mg/kg BIDx1, 8 h", "result": "1.13 fold or %"}, {"measurement": "Mdm2 fold increase or percent reduction vs vehicle control", "setting": "75 mg/kg BIDx1, 8 h", "result": "5.35 fold or %"}, {"measurement": "Mdm4 fold increase or percent reduction vs vehicle control", "setting": "75 mg/kg BIDx1, 8 h", "result": "1.03 fold or %"}, {"measurement": "Mel1 fold increase or percent reduction vs vehicle control", "setting": "75 mg/kg BIDx1, 8 h", "result": "24.40 fold or %"}, {"measurement": "Mlh1 fold increase or percent reduction vs vehicle control", "setting": "75 mg/kg BIDx1, 8 h", "result": "12.48 fold or %"}, {"measurement": "Msh2 fold increase or percent reduction vs vehicle control", "setting": "75 mg/kg BIDx1, 8 h", "result": "31.49 fold or %"}, {"measurement": "Myod1 fold increase or percent reduction vs vehicle control", "setting": "75 mg/kg BIDx1, 8 h", "result": "4.56 fold or %"}, {"measurement": "Nf1 fold increase or percent reduction vs vehicle control", "setting": "75 mg/kg BIDx1, 8 h", "result": "31.85 fold or %"}, {"measurement": "Nfkb1 fold increase or percent reduction vs vehicle control", "setting": "75 mg/kg BIDx1, 8 h", "result": "11.36 fold or %"}, {"measurement": "Pcna fold increase or percent reduction vs vehicle control", "setting": "75 mg/kg BIDx1, 8 h", "result": "32.47 fold or %"}, {"measurement": "Pmaip1 fold increase or percent reduction vs vehicle control", "setting": "75 mg/kg BIDx1, 8 h", "result": "1.60 fold or %"}, {"measurement": "Ppm1d fold increase or percent reduction vs vehicle control", "setting": "75 mg/kg BIDx1, 8 h", "result": "1.48 fold or %"}, {"measurement": "Prc1 fold increase or percent reduction vs vehicle control", "setting": "75 mg/kg BIDx1, 8 h", "result": "1.28 fold or %"}, {"measurement": "Prkca fold increase or percent reduction vs vehicle control", "setting": "75 mg/kg BIDx1, 8 h", "result": "5.77 fold or %"}, {"measurement": "Pten fold increase or percent reduction vs vehicle control", "setting": "75 mg/kg BIDx1, 8 h", "result": "0.35 fold or %"}, {"measurement": "Pttg1 fold increase or percent reduction vs vehicle control", "setting": "75 mg/kg BIDx1, 8 h", "result": "1.04 fold or %"}, {"measurement": "Rb1 fold increase or percent reduction vs vehicle control", "setting": "75 mg/kg BIDx1, 8 h", "result": "16.87 fold or %"}, {"measurement": "Rela fold increase or percent reduction vs vehicle control", "setting": "75 mg/kg BIDx1, 8 h", "result": "1.12 fold or %"}, {"measurement": "Rprm fold increase or percent reduction vs vehicle control", "setting": "75 mg/kg BIDx1, 8 h", "result": "3.08 fold or %"}, {"measurement": "Serpinb5 fold increase or percent reduction vs vehicle control", "setting": "75 mg/kg BIDx1, 8 h", "result": "3.96 fold or %"}, {"measurement": "Sesn2 fold increase or percent reduction vs vehicle control", "setting": "75 mg/kg BIDx1, 8 h", "result": "3.24 fold or %"}, {"measurement": "Sfn fold increase or percent reduction vs vehicle control", "setting": "75 mg/kg BIDx1, 8 h", "result": "1.12 fold or %"}, {"measurement": "Sirt1 fold increase or percent reduction vs vehicle control", "setting": "75 mg/kg BIDx1, 8 h", "result": "1.09 fold or %"}, {"measurement": "Stat1 fold increase or percent reduction vs vehicle control", "setting": "75 mg/kg BIDx1, 8 h", "result": "1.35 fold or %"}, {"measurement": "Tnf fold increase or percent reduction vs vehicle control", "setting": "75 mg/kg BIDx1, 8 h", "result": "1.85 fold or %"}, {"measurement": "Traf1 fold increase or percent reduction vs vehicle control", "setting": "75 mg/kg BIDx1, 8 h", "result": "1.23 fold or %"}, {"measurement": "Trp53bp2 fold increase or percent reduction vs vehicle control", "setting": "75 mg/kg BIDx1, 8 h", "result": "12.87 fold or %"}, {"measurement": "Trp53 fold increase or percent reduction vs vehicle control", "setting": "75 mg/kg BIDx1, 8 h", "result": "1.13 fold or %"}, {"measurement": "Apex1 fold increase or percent reduction vs vehicle control", "setting": "75 mg/kg BIDx1, 24 h", "result": "30.49 fold or %"}, {"measurement": "Atm fold increase or percent reduction vs vehicle control", "setting": "75 mg/kg BIDx1, 24 h", "result": "23.68 fold or %"}, {"measurement": "Atr fold increase or percent reduction vs vehicle control", "setting": "75 mg/kg BIDx1, 24 h", "result": "10.08 fold or %"}, {"measurement": "Bag1 fold increase or percent reduction vs vehicle control", "setting": "75 mg/kg BIDx1, 24 h", "result": "25.05 fold or %"}, {"measurement": "Bax fold increase or percent reduction vs vehicle control", "setting": "75 mg/kg BIDx1, 24 h", "result": "1.60 fold or %"}, {"measurement": "Bbc3 fold increase or percent reduction vs vehicle control", "setting": "75 mg/kg BIDx1, 24 h", "result": "1.80 fold or %"}, {"measurement": "Bcl2 fold increase or percent reduction vs vehicle control", "setting": "75 mg/kg BIDx1, 24 h", "result": "30.58 fold or %"}, {"measurement": "Bid fold increase or percent reduction vs vehicle control", "setting": "75 mg/kg BIDx1, 24 h", "result": "1.04 fold or %"}, {"measurement": "Birc5 fold increase or percent reduction vs vehicle control", "setting": "75 mg/kg BIDx1, 24 h", "result": "45.92 fold or %"}, {"measurement": "Brca1 fold increase or percent reduction vs vehicle control", "setting": "75 mg/kg BIDx1, 24 h", "result": "42.43 fold or %"}, {"measurement": "Brca2 fold increase or percent reduction vs vehicle control", "setting": "75 mg/kg BIDx1, 24 h", "result": "36.40 fold or %"}, {"measurement": "Btg2 fold increase or percent reduction vs vehicle control", "setting": "75 mg/kg BIDx1, 24 h", "result": "31.06 fold or %"}]}]}
